Assay results reported in patent publication US8114880B2, “Piperidine or piperazine substituted tetrahydro-naphthalene-1-carboxylic acid MTP inhibiting compounds” (Janssen Pharmaceutica N.V., priority 2006, dated 2012).

Legend:
[1] = system: HepG2 cells; experiment: Quantification of the secretion of ApoB; format: cell-based; conditions: Homo sapiens, HepG2, 24 h, 24 hours of incubation, pIC50 = -log IC50
Method in brief: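 At 70% confluency, HepG2 cells received compound (0.4% DMSO final) for 24 h. Secreted apoB in cleared medium was immunoprecipitated with sheep anti-apoB then rabbit anti-sheep antibody (24 h each at 8° C.), and pellet radioactivity was counted by scintillation. IC50 values were expressed as pIC50.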

[2] = molecular target: MTP (Homo sapiens, UniProt P55157); experiment: MTP assay (triglyceride transfer from donor to acceptor vesicles); format: biochemical; conditions: MTP activity, percent triglyceride transfer from donor to acceptor vesicles, 37° C.
Chain of MTP (P55157 19-894, species assumed): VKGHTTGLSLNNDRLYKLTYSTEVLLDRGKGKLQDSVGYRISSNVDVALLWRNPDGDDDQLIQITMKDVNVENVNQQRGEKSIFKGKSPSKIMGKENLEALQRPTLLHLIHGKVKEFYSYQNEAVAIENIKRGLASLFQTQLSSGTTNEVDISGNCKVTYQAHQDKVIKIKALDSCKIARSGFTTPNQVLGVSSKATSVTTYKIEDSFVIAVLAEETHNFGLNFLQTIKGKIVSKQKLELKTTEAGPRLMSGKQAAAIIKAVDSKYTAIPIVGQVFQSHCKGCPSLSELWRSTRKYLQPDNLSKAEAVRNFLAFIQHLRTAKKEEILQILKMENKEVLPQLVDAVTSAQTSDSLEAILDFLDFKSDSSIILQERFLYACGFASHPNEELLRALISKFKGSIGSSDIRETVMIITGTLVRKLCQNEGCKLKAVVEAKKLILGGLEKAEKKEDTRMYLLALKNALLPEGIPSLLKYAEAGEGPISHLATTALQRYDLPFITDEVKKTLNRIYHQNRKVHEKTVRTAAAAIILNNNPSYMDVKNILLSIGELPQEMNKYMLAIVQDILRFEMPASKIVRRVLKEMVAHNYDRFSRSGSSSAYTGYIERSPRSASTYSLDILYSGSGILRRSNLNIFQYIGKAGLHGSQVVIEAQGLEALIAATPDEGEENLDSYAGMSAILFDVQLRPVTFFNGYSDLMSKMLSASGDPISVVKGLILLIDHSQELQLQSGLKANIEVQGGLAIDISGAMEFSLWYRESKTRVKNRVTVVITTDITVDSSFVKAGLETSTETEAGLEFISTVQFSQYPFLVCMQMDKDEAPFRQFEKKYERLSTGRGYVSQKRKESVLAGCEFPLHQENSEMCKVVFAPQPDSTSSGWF
Chain of MTP (P07237 18-508 partner, species assumed): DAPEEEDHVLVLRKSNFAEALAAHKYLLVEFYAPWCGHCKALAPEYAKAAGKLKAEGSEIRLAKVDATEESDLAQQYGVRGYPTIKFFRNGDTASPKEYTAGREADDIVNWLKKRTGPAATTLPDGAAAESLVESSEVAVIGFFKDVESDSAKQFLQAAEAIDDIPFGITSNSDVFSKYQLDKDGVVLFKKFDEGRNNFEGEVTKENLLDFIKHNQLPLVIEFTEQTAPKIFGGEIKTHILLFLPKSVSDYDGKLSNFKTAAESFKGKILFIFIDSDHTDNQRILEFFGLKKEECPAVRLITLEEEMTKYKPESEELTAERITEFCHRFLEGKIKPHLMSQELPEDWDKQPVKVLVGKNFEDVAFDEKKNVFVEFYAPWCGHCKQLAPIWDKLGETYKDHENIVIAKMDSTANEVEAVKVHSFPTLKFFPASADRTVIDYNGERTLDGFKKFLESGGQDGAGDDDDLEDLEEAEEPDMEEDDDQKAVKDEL
Method in brief: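 Radiolabelled triglyceride transfer from donor vesicles (phosphatidylcholine, 7.5 mol % cardiolipin, 0.25 mol % glycerol tri[1-^14C]-oleate) to phosphatidylcholine acceptor vesicles with BSA, pH 7.5 Tris buffer; compounds in DMSO (0.13% final), 5 min preincubation at 37° C before MTP addition. Donor vesicles removed on DEAE-52; acceptor-supernatant ^14C counts give percent transfer.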

CCOC(=O)[C@]1(c2ccccc2)CC[C@@H](C(=O)N2CCC(NC(=O)c3ccccc3)CC2)c2ccccc21 (racemic) [Co. No. 25]
melting point: 112 to 115 °C | IC50 [1]: 15 nM | IC50 [2]: 3.85 nM

C=CCOC(=O)[C@]1(c2ccccc2)CC[C@@H](C(=O)N2CCC(NC(=O)c3ccccc3)CC2)c2ccccc21 [Co. No. 13]
melting point: 103 to 107 °C | IC50 [1]: 28.8 nM | IC50 [2]: 6.05 nM

COc1ccccc1C(=O)NC1CCN(C(=O)[C@H]2CC[C@](C(=O)NCCC(=O)OC(C)C)(c3ccc(Br)cc3)c3cc(Br)ccc32)CC1 [Co. No. 275]
IC50 [1]: > 1000 nM | IC50 [2]: > 1000 nM

CC(C)OC(=O)CCNC(=O)[C@@]1(c2ccccc2)CC[C@H](C(=O)N2CCC(NC(=O)c3ccccc3N3CCN(C)CC3)CC2)c2ccccc21 [Co. No. 276]
IC50 [1]: 75.2 nM | IC50 [2]: 3.49 nM

CC(C)OC(=O)CCNC(=O)[C@@]1(c2ccccc2)CC[C@H](C(=O)N2CCC(NC(=O)c3cccnc3N3CCN(C)CC3)CC2)c2ccccc21 [Co. No. 277]
IC50 [1]: 108 nM | IC50 [2]: 11.4 nM

CCCOC(=O)CCNC(=O)[C@@]1(c2ccccc2)CC[C@H](C(=O)N2CCC(NC(=O)c3ccccc3OC)CC2)c2ccccc21 [Co. No. 279]
IC50 [1]: 14.1 nM | IC50 [2]: 1.5 nM

COc1ncccc1C(=O)NC1CCN(C(=O)[C@H]2CC[C@@](C(=O)NCCC(=O)OC(C)C)(c3ccccc3)c3ccccc32)CC1 [Co. No. 280]
IC50 [1]: 3.82 nM | IC50 [2]: 0.82 nM
